Assay results published in PMC8850458, “The AUTOTAC chemical biology platform for targeted protein degradation via the autophagy-lysosome system” (Nature Communications, 2022).
Several values for one entry are separate records, joined by “and”; a condition that tells them apart may be missing. Identical values can stand only once.

Legend:
Assay type in all cases: cell-based
tauP301L = tauP301L (Homo sapiens, UniProt P10636, P618L); test: WB degradation of tauP301L in SH-SY5Y-tauP301L cells; details: densitometry, dosage degradation, SH-SY5Y-Tau-TiFC; for Tau normalized to GAPDH and control, AVG %: average of N=3
Experimental: Adherent cells were washed with phosphate-buffered saline (PBS) and cell pellets were lysed in SDS-based sample buffer (277.8 mM Tris-HCI, pH 6.8, 4.4% LDS, 44.4% (v/v) glycerol) containing beta-mercaptoethanol. Alternatively, cell pellets or protein supernatants were lysed in 5X Laemmli sample buffer. Whole-cell lysates were separated using SDS-PAGE, and transferred onto polyvinyllidene difluoride membranes at 100 V for 2 h at 4 °C. The membrane was incubated with a blocking solution consisting 4% skim milk in PBS solution for 30 min at room temperature and incubated with primary antibodies overnight, followed by incubation with host-specific HRP-conjugated secondary antibodies (1:10000 dilution). For signal detection, the membrane was developed with a mixture of ECL solution (Thermo Fisher Scientific) using X-ray films. Densitometry of developed bands was measured and analyzed with ImageJ (NIH, Bethesda).

mutant HttQ103 and LC3 = test: ICC of HDQ103-GFP and LC3 co-localization in HeLa cells; details: Fig. S7k, test substances given +HCQ; for HttQ103-GFP / LC3 colocalization, AVG of cells per 50 cells: control 1; for HttQ103-GFP / LC3 colocalization, percentage AVG: control 2
Experimental: Cells were cultured on coverslips coated with poly-L-lysine (Sigma) to observe cellular localization of proteins. Using 4% paraformaldehyde in PBS (pH 7.4), the cells were fixed for 15 min at room temperature and washed three times for 5 min with PBS. After fixing, the cells were permeabilized with 0.5% Triton X-100 in PBS solution for 15 min and washed three times with PBS for 5 min. The cells were blocked containing 2% BSA in PBS solution for 1 h at room temperature. Subsequently, the cells were incubated with primary antibody diluted in 2% BSA/PBS solution overnight at 4 °C, followed by washing the cells three times for 10 min with PBS and incubated with Alexa Fluor-conjugated secondary antibody diluted in 2% BSA/PBS for 30 min at room temperature. Using a DAPI-containing mounting medium (Vector Laboratories), the coverslips were mounted on glass slides. Confocal images were taken by laser scanning confocal microscope 510 Meta (Zeiss) and analyzed by Zeiss LSM Image Browser (ver. 4.2.0.121). […] Quantification results are shown as mean ± S.D. or S.E.M. of three independent experiments […]
Supplementary Fig. 7. AUTOTACs selectively degrade pathological mutant huntingtin. […]
(j) ICC of HeLa cells […]
expressing HDQ103-GFP with the indicated compounds (1 μM, 24 h) treated with HCQ (10 μM, 24 h). Scale bar, 10 μm. (k) Quantification of j (n=3 biologically independent experiments each counting 50 cells). P-values (from a two-sided unpaired t-test): *P < 0.0432. Data are presented as mean values ± SD where relevant. Source data are provided with this paper. […]

[1] = tested on: tauP301L inclusion bodies; test: ICC of TauP301L-GFP autophagic targeting in HeLa cells; details: Fig. 5k, HCQ alone
Experimental: Fig. 5 Selective degradation of pathological aggregation-prone tau species by aggregate-binding AUTOTAC. a–c WB in SH-SY5Y-tauP301L cells treated with PBA-1105, PBA, or YTK-1105 at the indicated concentrations. d Densitometry of (a, b, and c) (n = 3 biologically independent experiments). e–g Same as (a–c) but with Anle138b-F105, Anle138b, or YTK-105. (h) Densitometry of (e, f, and g) (n = 3 biologically independent experiments). i WB in SH-SY5Y-tauP301L cells treated with PBA-1105 (0.1 μM) at the indicated time points. j ICC of HeLa cells expressing recombinant TauP301L-GFP and treated with the indicated compounds (1 μM, 24 h) and HCQ (10 μM, 24 h). Scale bar, 10 μm. k Quantification of (j) (n = 3 biologically independent experiments each counting 50 cells). l In vivo oligomerization assay in SH-SY5Y-tauP301L cells treated with okadaic acid (15 nM, 24 h) and the indicated compounds (0.1 μM, 24 h). m Triton X-100-fractionation assay in SH-SY5Y-tauP301L cells treated with a combination of HCQ (10 μM, 24 h), okadaic acid (15 nM, 24 h) or PBA-1105 (0.1 μM, 24 h). Data are presented as mean values ± SD where relevant. P-values (from a two-sided unpaired t test): **P < 0.00821. Source data are provided with this paper.
Cells were cultured on coverslips coated with poly-L-lysine (Sigma) to observe cellular localization of proteins. Using 4% paraformaldehyde in PBS (pH 7.4), the cells were fixed for 15 min at room temperature and washed three times for 5 min with PBS. After fixing, the cells were permeabilized with 0.5% Triton X-100 in PBS solution for 15 min and washed three times with PBS for 5 min. The cells were blocked containing 2% BSA in PBS solution for 1 h at room temperature. Subsequently, the cells were incubated with primary antibody diluted in 2% BSA/PBS solution overnight at 4 °C, followed by washing the cells three times for 10 min with PBS and incubated with Alexa Fluor-conjugated secondary antibody diluted in 2% BSA/PBS for 30 min at room temperature. Using a DAPI-containing mounting medium (Vector Laboratories), the coverslips were mounted on glass slides. Confocal images were taken by laser scanning confocal microscope 510 Meta (Zeiss) and analyzed by Zeiss LSM Image Browser (ver. 4.2.0.121). […] Quantification results are shown as mean ± S.D. or S.E.M. of three independent experiments

tauP301L, sequence (P10636 1-441 isoform P10636-8 P301L): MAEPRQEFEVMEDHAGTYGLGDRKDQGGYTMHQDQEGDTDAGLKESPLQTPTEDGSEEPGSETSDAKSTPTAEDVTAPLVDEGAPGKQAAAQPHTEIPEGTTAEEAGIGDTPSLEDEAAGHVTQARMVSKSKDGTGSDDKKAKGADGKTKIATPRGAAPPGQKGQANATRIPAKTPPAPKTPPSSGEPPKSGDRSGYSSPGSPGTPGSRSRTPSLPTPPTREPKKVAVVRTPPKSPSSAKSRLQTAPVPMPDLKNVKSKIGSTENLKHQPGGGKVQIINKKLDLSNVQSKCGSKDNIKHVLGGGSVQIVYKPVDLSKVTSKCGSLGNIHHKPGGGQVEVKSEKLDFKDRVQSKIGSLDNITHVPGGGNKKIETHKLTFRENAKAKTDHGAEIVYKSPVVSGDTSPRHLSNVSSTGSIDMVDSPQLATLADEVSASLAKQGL

| SMILES | Tau normalized to GAPDH and control, AVG % (tauP301L; 1 nM) | remaining activity at 0.001 µM (tauP301L; 1 nM, read-out: (Tau normalized to GAPDH) normalized to control, percentage (individual replicates N=1, N=2, N=3)) | Tau normalized to GAPDH and control, AVG % (tauP301L; 10 nM) | Tau normalized to GAPDH and control, AVG % (tauP301L; 100 nM) | Tau normalized to GAPDH and control, AVG % (tauP301L; 1 uM) | Tau normalized to GAPDH and control, AVG % (tauP301L; 10uM) | HttQ103-GFP / LC3 colocalization, AVG of cells per 50 cells (mutant HttQ103 and LC3) | HttQ103-GFP / LC3 colocalization, percentage AVG (mutant HttQ103 and LC3) | HttQ103-GFP / LC3 colocalization, cells counted per 50 cells (mutant HttQ103 and LC3; single experiments) | TauP301L-GFP / LC3 colocalization, AVG of cells per 50 cells [1] | TauP301L-GFP / LC3 colocalization, percentage AVG [1] | TauP301L-GFP / LC3 colocalization, cells counted per 50 cells (individual replicates) ([1]; count out of 50 cells) |
| --- | --- | --- | --- | --- | --- | --- | --- | --- | --- | --- | --- | --- |
| Brc1cccc(-c2cc(-c3ccc4c(c3)OCO4)[nH]n2)c1 [Anle138b, reference compound] | 90.8031% | 89.3% | 101.352% | 84.5794% | 69.922% | 83.6402% | 21 | 42 |  |  |  |  |
| CCN(CCO)CCCC(C)Nc1ccnc2cc(Cl)ccc12 (centres unmarked) [HCQ] |  |  |  |  |  |  | 14.6667 | 29.3333 | 13 and 17 and 14 | 11.3333 | 22.6667 percentage | 15 and 7 and 12 |
